Laboratory results taken from patent publication US8822479B2, “6-cyclylmethyl-and 6-alkylmethyl-substituted pyrazolepyrimidines” (Boehringer Ingelheim International GmbH, priority 2003, dated 2014).
Structures can show the parent of a compound that is named as a salt.

molecular target: human PDE9A (Homo sapiens (Human), UniProt O76083); details: concentrations of up to 100 μM; cited from earlier work
Sequence (O76083 whole entry): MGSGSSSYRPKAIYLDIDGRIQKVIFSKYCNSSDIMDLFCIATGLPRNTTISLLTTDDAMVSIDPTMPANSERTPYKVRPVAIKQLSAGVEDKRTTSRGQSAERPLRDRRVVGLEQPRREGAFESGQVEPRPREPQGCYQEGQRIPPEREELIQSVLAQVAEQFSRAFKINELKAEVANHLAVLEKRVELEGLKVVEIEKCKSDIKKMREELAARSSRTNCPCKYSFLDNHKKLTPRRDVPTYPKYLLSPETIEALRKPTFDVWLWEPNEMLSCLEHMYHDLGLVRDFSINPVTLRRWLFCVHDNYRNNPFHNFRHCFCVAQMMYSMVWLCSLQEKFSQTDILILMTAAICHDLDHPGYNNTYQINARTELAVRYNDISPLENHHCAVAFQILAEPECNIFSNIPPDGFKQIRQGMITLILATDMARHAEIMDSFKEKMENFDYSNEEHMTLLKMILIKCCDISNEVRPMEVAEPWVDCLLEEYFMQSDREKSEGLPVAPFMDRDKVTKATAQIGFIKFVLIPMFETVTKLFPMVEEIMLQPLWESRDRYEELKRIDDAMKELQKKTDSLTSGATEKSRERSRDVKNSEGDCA

Row | SMILES | inhibition on the isolated enzyme
1 | CC(=O)Nc1ccc(-c2c[nH]c(=O)cn2)cc1 [SKF94120] | no inhibition
2 | OCCN(CCO)c1nc(N2CCCCC2)c2nc(N(CCO)CCO)nc(N3CCCCC3)c2n1 [dipyridamole] | no inhibition
3 | COc1ccc(C2CNC(=O)C2)cc1OC1CCCC1 (stereo not shown) [rolipram] | no inhibition
4 | CC(C)Cn1c(=O)n(C)c(=O)c2[nH]cnc21 [IBMX] | no inhibition
5 | CCOC(=O)C1=C[C@]2(CC)CCCN3CCc4c(n1c1ccccc41)[C@@H]32 [vinpocetine] | no inhibition

molecular target: Murine PDE9A (Mus musculus (Mouse), UniProt O70628); details: concentrations below 200 μM; cited from earlier work
Sequence (O70628 whole entry): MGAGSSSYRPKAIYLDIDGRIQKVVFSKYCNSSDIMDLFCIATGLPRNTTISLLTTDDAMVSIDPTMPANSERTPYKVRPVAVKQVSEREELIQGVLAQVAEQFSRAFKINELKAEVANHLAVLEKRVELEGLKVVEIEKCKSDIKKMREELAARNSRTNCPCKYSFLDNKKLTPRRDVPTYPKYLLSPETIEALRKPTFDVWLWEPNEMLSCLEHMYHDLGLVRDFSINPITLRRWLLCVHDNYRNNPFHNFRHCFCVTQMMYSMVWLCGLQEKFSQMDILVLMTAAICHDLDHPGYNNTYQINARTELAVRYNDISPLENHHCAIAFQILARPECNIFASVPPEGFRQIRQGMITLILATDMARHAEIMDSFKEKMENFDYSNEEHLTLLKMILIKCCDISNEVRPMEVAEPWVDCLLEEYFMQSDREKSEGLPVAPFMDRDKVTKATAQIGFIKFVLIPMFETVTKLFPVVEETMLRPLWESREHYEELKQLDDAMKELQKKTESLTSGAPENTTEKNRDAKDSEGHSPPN

Row | SMILES | inhibition of murine PDE9A
6 | CC(C)Cn1c(=O)n(C)c(=O)c2[nH]cnc21 [IBMX] | not inhibited

tested on: not given; details: not given

Row | melting point [°C] | SMILES
7 | 179 | Cc1ccccc1-n1ncc2c(=O)[nH]c(CC3C=CCC3)nc21 (stereo not shown) (as salt: sodium) [Example 9, 6-(2-Cyclopenten-1-ylmethyl)-1-(2-methylphenyl)-1,5-dihydro-4H-pyrazolo[3,4-d]pyrimidin-4-one]
8 | 149 | CCC(C)Cc1nc2c(cnn2-c2cnccc2C)c(=O)[nH]1 (racemic) (as salt: sodium) [Example 39, 6-(2-Methylbutyl)-1-(4-methylpyridin-3-yl)-1,5-dihydro-4H-pyrazolo[3,4-d]pyrimidin-4-one]
9 | 132 | CCC(C)Cc1nc2c(cnn2-c2ccccc2C)c(=O)[nH]1 (racemic) (as salt: sodium) [Example 35, 6-(2-Methylbutyl)-1-(2-methylphenyl)-1,5-dihydro-4H-pyrazolo[3,4-d]pyrimidin-4-one]
10 | 153 | O=c1[nH]c(CC2C=CCC2)nc2c1cnn2-c1ccccc1C(F)(F)F (stereo not shown) (as salt: sodium) [Example 14, 6-(2-Cyclopenten-1-ylmethyl)-1-[2-(trifluoromethyl)phenyl]-1,5-dihydro-4H-pyrazolo[3,4-d]pyrimidin-4-one]
11 | 204 | CC(C)Cc1nc2c(cnn2-c2ccccc2Cl)c(=O)[nH]1 (as salt: sodium) [Example 40, 1-(2-Chlorophenyl)-6-(2-methylpropyl)-1,5-dihydro-4H-pyrazolo[3,4-d]pyrimidin-4-one]
12 | 181 | Cc1ccccc1-n1ncc2c(=O)[nH]c(CC3CCCC3)nc21 (as salt: sodium)
13 | 206 | Cc1ccncc1-n1ncc2c(=O)[nH]c(CC3CCCC3)nc21 (as salt: sodium)
14 | 239 | O=c1[nH]c(CC2C=CCC2)nc2c1cnn2-c1ccccn1 (stereo not shown) (as salt: sodium) [Example 17, 6-(2-Cyclopenten-1-ylmethyl)-1-(2-pyridinyl)-1,5-dihydro-4H-pyrazolo[3,4-d]pyrimidin-4-one]
15 | 143 | CCC(CC)Cc1nc2c(cnn2-c2cnccc2C)c(=O)[nH]1 (as salt: sodium) [Example 41, 6-(2-Ethylbutyl)-1-(4-methylpyridin-3-yl)-1,5-dihydro-4H-pyrazolo[3,4-d]pyrimidin-4-one]
16 | 150 | O=c1[nH]c(CC2C=CCC2)nc2c1cnn2-c1ccccc1Cl (stereo not shown) (as salt: sodium) [Example 16, 6-(2-Cyclopenten-1-ylmethyl)-1-(2-chlorophenyl)-1,5-dihydro-4H-pyrazolo[3,4-d]pyrimidin-4-one]
17 | 146 | CCc1ccccc1-n1ncc2c(=O)[nH]c(CC3C=CCC3)nc21 (stereo not shown) (as salt: sodium) [Example 8, 6-(2-Cyclopenten-1-ylmethyl)-1-(2-ethylphenyl)-1,5-dihydro-4H-pyrazolo[3,4-d]pyrimidin-4-one]
18 | 160 | Cc1ccccc1-n1ncc2c(=O)[nH]c(CC(C)C(F)(F)F)nc21 (racemic) (as salt: sodium) [Example 36, 1-(2-Methylphenyl)-6-(3,3,3-trifluoro-2-methylpropyl)-1,5-dihydro-4H-pyrazolo[3,4-d]pyrimidin-4-one]
19 | 182 | COc1ccccc1-n1ncc2c(=O)[nH]c(CC3C=CCC3)nc21 (stereo not shown) (as salt: sodium) [Example 18, 6-(2-Cyclopenten-1-ylmethyl)-1-(2-methoxyphenyl)-1,5-dihydro-4H-pyrazolo[3,4-d]pyrimidin-4-one]
20 | 169 | Cc1ccccc1-n1ncc2c(=O)[nH]c(CC3CCCCC3)nc21 (as salt: sodium) [Example 10, 6-Cyclohexylmethyl-1-(2-methylphenyl)-1,5-dihydro-4H-pyrazolo[3,4-d]pyrimidin-4-one]
21 | 206 | Cc1ccncc1-n1ncc2c(=O)[nH]c(CC3CCCCC3)nc21 (as salt: sodium) [Example 43, 6-Cyclohexylmethyl-1-(4-methylpyridin-3-yl)-1,5-dihydro-4H-pyrazolo[3,4-d]pyrimidin-4-one]
22 | 163 | O=c1[nH]c(CC2C=CCC2)nc2c1cnn2-c1ccccc1F (stereo not shown) (as salt: sodium) [Example 15, 6-(2-Cyclopenten-1-ylmethyl)-1-(2-fluorophenyl)-1,5-dihydro-4H-pyrazolo[3,4-d]pyrimidin-4-one]
